Where two headings read alike, the source gives them in different places.
How the values were obtained:
hNSC = assay: MMP assay in human neural stem cells (hNSC); format: cell-based; conditions: Homo sapiens, Neural stem cell; 1 h treatment; fresh re-sourced stocks; mean±SD of three experiments; read-out: hNSC IC50 (MMP)
HepG2 cells [1] = assay: ROS-Glo hydrogen peroxide (ROS) assay; format: cell-based, human; conditions: 2 h treatment, mean±SD of three experiments
HepG2 cells [2] = assay: Intracellular ATP content (cell viability) assay; format: cell-based, human; conditions: 40 h treatment, mean±SD of three experiments; for IC50: Homo sapiens, HepG2
[3] = tested on: p53 (p53-bla HCT-116 cells); assay: p53 β-lactamase reporter gene assay; format: cell-based, human; conditions: 16 h incubation, mean±SD of three experiments
[4] = tested on: Nrf2/ARE (ARE-bla HepG2 cells); assay: ARE β-lactamase reporter gene assay; format: cell-based, human; conditions: Homo sapiens, HepG2; 16 h incubation; mean±SD of three experiments; read-out: ARE (HepG2) EC50
[5] = tested on: isolated rat liver mitochondria; assay: Oxygen consumption, Clark-type oxygen electrode; format: biochemical; conditions: for I-ADP, % of control (O2 consumption rate): glutamate/malate driven state 3 respiration; for I-ADP, % of control (O2 consumption rate) / I-sub, % of control (O2 consumption rate) / II-ADP, % of control (O2 consumption rate) / II-sub, % of control (O2 consumption rate): isolated rat liver mitochondria; for I-sub, % of control (O2 consumption rate): glutamate/malate driven state 4 respiration; for II-ADP, % of control (O2 consumption rate): succinate-driven state 3 respiration; for II-sub, % of control (O2 consumption rate): succinate-driven state 4 respiration; for Potential Mechanism: mitochondrial respiration in isolated rat liver mitochondria, Clark type oxygen electrode, over tested concentrations
[6] = tested on: HeLa cells expressing YFP-Parkin; assay: Parkin translocation assay; format: cell-based, human; conditions: HeLa cells stably expressing YFP-Parkin; treated for 2 h
HepG2 cells [7] = conditions: 10 mM galactose, no glucose; 1 h treatment; mean±SD of three experiments
HepG2 cells [8] = conditions: cited from earlier work
HepG2 cells [9] = assay: cells; conditions: Homo sapiens; for Emax: HepG2, read-out: MMP assays efficacy (%) HepG2
[10] = tested on: Caenorhabditis elegans strain PE255; assay: In vivo C. elegans ATP status assay
rat primary hepatocytes = assay: MMP assay in rat primary hepatocytes; conditions: for Rat hepatocytes (efficacy) (MMP): % of positive control, mean±SD of three experiments; for IC50: Rattus norvegicus, Hepatocyte; for MMP assays efficacy (%) Rat Hepatocytes: mean ± SD of three experiments
[11] = tested on: Caenorhabditis elegans (Bristol N2); assay: C. elegans larval development and growth assay
[12] = HepG2, 1 h, read-out: HepG2 IC50 Glucose (MMP)
[13] = HepG2, read-out: MMP assays IC50 (µM) HepG2
[14] = 1 h, read-out: Rat hepatocytes IC50 (MMP)
[15] = read-out: MMP assays IC50 (µM) Rat Hepatocytes

For `O=C(O)c1cc(O)c2c(c1)C(=O)c1cccc(O)c1C2=O` [Rhein], the IC50 (hNSC) was 10.3 ± 3.4 µM, the “ROS (HepG2) EC50” value (HepG2 cells [1]) was “Inactive” and the “ATP (HepG2, glucose) IC50” value (HepG2 cells [2]; 5 mM glucose) was “Inactive”. The “ATP (HepG2, galactose) IC50” value (HepG2 cells [2]; 10 mM galactose) was “Inactive”, the “p53 (HCT-116) EC50” value [3] was “Inactive” and the EC50 [4] was 15.4 ± 8.38 µM. For the same compound, the “I-ADP, % of control (O2 consumption rate)” value ([5]; 4 µM) was 90 (49.1) % of control, the “I-sub, % of control (O2 consumption rate)” value ([5]; 4 µM) was 105 (13.7) % of control and the “II-ADP, % of control (O2 consumption rate)” value (shortened to “II-ADP, % of control”) ([5]; 4 µM) was 89 (78.7) % of control. The “II-sub, % of control (O2 consumption rate)” value (from here on “II-sub, % of control”) ([5]; 4 µM) was 103 (25.4) % of control, the “I-ADP, % of control (O2 consumption rate)” value ([5]; 20 µM) was 87 (47.4) % of control and the “I-sub, % of control (O2 consumption rate)” value ([5]; 20 µM) was 127 (16.6) % of control. For the same compound, the “II-ADP, % of control” value ([5]; 20 µM) was 87 (76.7) % of control, the “II-sub, % of control” value ([5]; 20 µM) was 128 (31.4) % of control and the “Potential Mechanism” value [5] was “Uncoupler”. The Parkin recruitment [6] was “Inactive”, the “HepG2 IC50 Galactose (MMP)” value (HepG2 cells [7]) was “Inactive” and the “MMP assays efficacy (%) qHTS-HepG2” value (HepG2 cells [8]) was -100±22%. For the same compound, the IC50 (HepG2 cells [8]; read-out: MMP assays IC50 (µM), qHTS-HepG2) was 6.06 ± 5.91 µM, the IC50 (HepG2 cells [9]; [12]) was 15.2 ± 1.76 µM and the IC50 (HepG2 cells [9]; [13]) was 8.91 µM. The Emax (HepG2 cells [9]) was 86%, the “LUM: mean difference in luminescence (ATP content) relative to plate controls” value ([10]; 0.05 µM) was -0.02422 and the “LUM: mean difference in luminescence (ATP content) relative to plate controls” value ([10]; 0.1 µM) was 0.007311. The “LUM: mean difference in luminescence (ATP content) relative to plate controls” value ([10]; 0.5 µM) was 0.006998, the “LUM: mean difference in luminescence (ATP content) relative to plate controls” value ([10]; 1 µM) was 0.1053 and the “LUM: mean difference in luminescence (ATP content) relative to plate controls” value ([10]; 5 µM) was 0.1063. For the same compound, the “LUM: mean difference in luminescence (ATP content) relative to plate controls” value ([10]; 10 µM) was 0.1127, the “LUM: mean difference in luminescence (ATP content) relative to plate controls” value ([10]; 25 µM) was 0.2215 and the “LUM: mean difference in luminescence (ATP content) relative to plate controls” value ([10]; 50 µM) was 0.2804. For the same compound, the “LUM: mean difference in luminescence (ATP content) relative to plate controls” value ([10]; 75 µM) was 0.1816, the “LUM: mean difference in luminescence (ATP content) relative to plate controls” value ([10]; 100 µM) was 0.2365 and the “Rat hepatocytes (efficacy) (MMP)” value (rat primary hepatocytes) was −37.5±6.05%. For the same compound, the IC50 (rat primary hepatocytes; [14]) was 6.76 ± 4.03 µM, the IC50 (rat primary hepatocytes; [15]) was 11.6 ± 4.85 µM and the “MMP assays efficacy (%) Rat Hepatocytes” value (rat primary hepatocytes) was -80±28%. The “EXT: mean difference in nematode size relative to plate controls” value ([11]; 0.5 µM) was 0.02304, the “EXT: mean difference in nematode size relative to plate controls” value ([11]; 1 µM) was 0.01629 and the “EXT: mean difference in nematode size relative to plate controls” value ([11]; 5 µM) was 0.06956. The “EXT: mean difference in nematode size relative to plate controls” value ([11]; 10 µM) was -0.06339, the “EXT: mean difference in nematode size relative to plate controls” value ([11]; 25 µM) was -0.09625 and the “EXT: mean difference in nematode size relative to plate controls” value ([11]; 50 µM) was 0.296. For the same compound, the “EXT: mean difference in nematode size relative to plate controls” value ([11]; 75 µM) was 0.2342 and the “EXT: mean difference in nematode size relative to plate controls” value ([11]; 100 µM) was 0.2496.

For `Cc1cc(O)c2c(c1)C(=O)c1cc(O)cc(O)c1C2=O` [Emodin], the IC50 (hNSC) was 1.09 ± 0.56 µM, the EC50 (HepG2 cells [1]; Homo sapiens, HepG2, read-out: ROS (HepG2) EC50) was 5.24 ± 1.72 µM and the IC50 (HepG2 cells [2]; 5 mM glucose, read-out: ATP (HepG2, glucose) IC50) was 43 ± 4.95 µM. For the same compound, the IC50 (HepG2 cells [2]; 10 mM galactose, read-out: ATP (HepG2, galactose) IC50) was 39.7 ± 2.69 µM, the EC50 ([3]; Homo sapiens) was 14.9 ± 6.5 µM and the EC50 [4] was 10.5 ± 1.45 µM. The “I-ADP, % of control (O2 consumption rate)” value ([5]; 0.16 µM) was 93 (34.5) % of control, the “I-sub, % of control (O2 consumption rate)” value ([5]; 0.16 µM) was 102 (11.0) % of control and the “II-ADP, % of control” value ([5]; 0.16 µM) was 94 (59.1) % of control. The “II-sub, % of control” value ([5]; 0.16 µM) was 110 (20.4) % of control, the “I-ADP, % of control (O2 consumption rate)” value ([5]; 0.8 µM) was 98 (36.6) % of control and the “I-sub, % of control (O2 consumption rate)” value ([5]; 0.8 µM) was 120 (13.0) % of control. For the same compound, the “II-ADP, % of control” value ([5]; 0.8 µM) was 94 (59.4) % of control, the “II-sub, % of control” value ([5]; 0.8 µM) was 114 (21.1) % of control and the “I-ADP, % of control (O2 consumption rate)” value ([5]; 4 µM) was 110 (41.0) % of control. The “I-sub, % of control (O2 consumption rate)” value ([5]; 4 µM) was 232 (25.1) % of control, the “II-ADP, % of control” value ([5]; 4 µM) was 84 (53.2) % of control and the “II-sub, % of control” value ([5]; 4 µM) was 144 (26.8) % of control. The “I-ADP, % of control (O2 consumption rate)” value ([5]; 20 µM) was 144 (53.6) % of control, the “I-sub, % of control (O2 consumption rate)” value ([5]; 20 µM) was 540 (58.3) % of control and the “II-ADP, % of control” value ([5]; 20 µM) was 81 (51.3) % of control. The “II-sub, % of control” value ([5]; 20 µM) was 198 (36.7) % of control, the “I-ADP, % of control (O2 consumption rate)” value ([5]; 100 µM) was 59 (30.1) % of control and the “I-sub, % of control (O2 consumption rate)” value ([5]; 100 µM) was 165 (35.4) % of control. For the same compound, the “II-ADP, % of control” value ([5]; 100 µM) was 33 (19.6) % of control, the “II-sub, % of control” value ([5]; 100 µM) was 67 (23.4) % of control and the “Potential Mechanism” value [5] was “Uncoupler at low concentrations (4-20 µM), and Uncoupler + inhibitor at high concentrations (100 µM)”. The Parkin recruitment [6] was “Active”, the “MMP assays efficacy (%) qHTS-HepG2” value (HepG2 cells [8]) was -97±5% and the IC50 (HepG2 cells [8]; read-out: MMP assays IC50 (µM) qHTS-HepG2) was 1.33 ± 0.78 µM. The IC50 (HepG2 cells [9]; HepG2, 1 h, read-out: HepG2 IC50 Galactose (MMP)) was 8 ± 1.44 µM, the IC50 (HepG2 cells [9]; [12]) was 6.14 ± 1.29 µM and the IC50 (HepG2 cells [9]; [13]) was 2.51 µM. For the same compound, the Emax (HepG2 cells [9]) was 104%, the “LUM: mean difference in luminescence (ATP content) relative to plate controls” value ([10]; 0.5 µM) was 0.08724 and the “LUM: mean difference in luminescence (ATP content) relative to plate controls” value ([10]; 1 µM) was 0.09663. For the same compound, the “LUM: mean difference in luminescence (ATP content) relative to plate controls” value ([10]; 5 µM) was 0.2419, the “LUM: mean difference in luminescence (ATP content) relative to plate controls” value ([10]; 10 µM) was 0.4641 and the “LUM: mean difference in luminescence (ATP content) relative to plate controls” value ([10]; 25 µM) was 0.5201. For the same compound, the “LUM: mean difference in luminescence (ATP content) relative to plate controls” value ([10]; 50 µM) was 0.576, the “LUM: mean difference in luminescence (ATP content) relative to plate controls” value ([10]; 75 µM) was 0.5532 and the “LUM: mean difference in luminescence (ATP content) relative to plate controls” value ([10]; 100 µM) was 0.7699. The “effect on ATP content (in words)” value ([10]; 0.5–100μM, 24 h exposure) was “statistically significant decreases in ATP content”, the minimal effective concentration ([10]; Caenorhabditis elegans, read-out: LEC LUM: lowest effect concentration for luminescence, a measure of nematode ATP content) was 25 µM and the “Rat hepatocytes (efficacy) (MMP)” value (rat primary hepatocytes) was −106±9.55%. The IC50 (rat primary hepatocytes; [14]) was 15.8 ± 1.07 µM, the IC50 (rat primary hepatocytes; [15]) was 6.28 ± 4.57 µM and the “MMP assays efficacy (%) Rat Hepatocytes” value (rat primary hepatocytes) was -101±17%. For the same compound, the “EXT: mean difference in nematode size relative to plate controls” value ([11]; 0.5 µM) was 0.07129, the “EXT: mean difference in nematode size relative to plate controls” value ([11]; 1 µM) was 0.003832 and the “EXT: mean difference in nematode size relative to plate controls” value ([11]; 5 µM) was -0.0304. The “EXT: mean difference in nematode size relative to plate controls” value ([11]; 10 µM) was 0.01596, the “EXT: mean difference in nematode size relative to plate controls” value ([11]; 25 µM) was 0.07038 and the “EXT: mean difference in nematode size relative to plate controls” value ([11]; 50 µM) was 0.04376. The “EXT: mean difference in nematode size relative to plate controls” value ([11]; 100 µM) was -0.01346 and the “effect on larval growth (in words)” value ([11]; 0.5–100μM, 48 h exposure) was “did not affect growth”.

From article PMC6112376, “Comprehensive Analyses and Prioritization of Tox21 10K Chemicals Affecting Mitochondrial Function by in-Depth Mechanistic Studies” (Environmental Health Perspectives, 2018)
